Assay results published in patent publication US10112932B2, “Benzoxazepin oxazolidinone compounds and methods of use” (Genentech, Inc., priority 2015, dated 2018).
pEC50, pIC50, pKi: −log10 of the molar value. Read-outs that look alike come from different tables or passages of the source.

Assays:
[1] = biological target: PI3Kα (Homo sapiens (Human), UniProt P42336); assay: Biochemical inhibition of PI3K alpha (ADP-Glo lipid kinase assay, Example 901); conditions: for pKi: geometric mean of minimum three experiments unless footnoted; for Selectivity for PI3Kα vs. PI3K-β: Ki ratio beta/alpha; for Selectivity for PI3Kα vs. PI3Kγ: Ki ratio gamma/alpha
Procedure: (§1) Reactions are carried out using the following conditions for each PI3K isoform as in Table 5.
(§2) All reactions are carried out at room temperature. […] The reaction is started by the addition of 2 μl ATP/MgCl2. The kinase reaction buffer contains 50 mM HEPES, 50 mM NaCl 3 mM MgCl2, 0.01% BSA, 1% DMSO, and enzyme and substrate concentrations as indicated in the above table. The reaction is stopped by the addition of 10 μL ADP-Glo reagent. Plates are read in a Perkin Elmer Envision system using luminescence mode. 10 point dose response curves are generated for each test compound. Ki values for each compound are determined using the Morrison Equation.

[2] = system: SW48 (parental) PI3Kα wild-type cells, P-PRAS40; assay: Inhibition of P-PRAS40 in SW48 isogenic cells, PI3Kα wild-type parental (Example 902); conditions: Homo sapiens, SW48, 24 h, read-out: P-PRAS40 SW48 (parental) EC50
[3] = system: SW48 (E545K) PI3Kα mutant cells, P-PRAS40; assay: Inhibition of P-PRAS40 in SW48 isogenic cells, helical domain mutant E545K (Example 902); conditions: for pEC50: Homo sapiens, SW48, 24 h, read-out: P-PRAS40 SW48 (E545K) EC50; for Fold Selectivity for SW48 (E545K) vs. SW48 (parental): EC50 ratio
[4] = system: SW48 (H1047R) PI3Kα mutant cells, P-PRAS40; assay: Inhibition of P-PRAS40 in SW48 isogenic cells, kinase domain mutant H1047R (Example 902); conditions: for pEC50: Homo sapiens, SW48, 24 h, read-out: P-PRAS40 SW48 (H1047R) EC50; for Fold Selectivity for SW48 (H1047R) vs. SW48 (parental): EC50 ratio
[5] = biological target: PI3Kβ (Homo sapiens (Human), UniProt P42338); assay: Biochemical inhibition of PI3K beta (ADP-Glo lipid kinase assay, Example 901); conditions: geometric mean of minimum three experiments
Procedure: as §1, §2

[6] = biological target: PI3Kδ (Homo sapiens (Human), UniProt O00329); assay: Biochemical inhibition of PI3K delta (ADP-Glo lipid kinase assay, Example 901); conditions: geometric mean of minimum three experiments unless footnoted
Procedure: as §1, §2

[7] = biological target: PI3Kγ (Homo sapiens (Human), UniProt P48736); assay: Biochemical inhibition of PI3K gamma (ADP-Glo lipid kinase assay, Example 901); conditions: geometric mean of minimum three experiments
Procedure: as §1, §2

[8] = system: HDQ-P1 (PI3Kα wild-type), p-PRAS40; assay: p-PRAS40 MSD assay in HDQ-P1 cells (Example 907); conditions: Homo sapiens, HDQ-P1, 24 h, read-out: P-PRAS40 HDQ-P1 MSD EC50
Procedure: The following day, cells are treated with compounds and incubated for 24 hours. […] The HCC1954 cell line expresses mutant PI3Kα (E545K) vs WT in HDQP1.
The MSD platform provides a method of measuring the phosphorylated levels of pPRAS40 in a single sample. […] Following cell lysis, PRAS40 in samples is allowed to bind to the capture antibodies.
Procedure: • Compounds prepared at concentration of 2 mM in DMSO.
Day 1: Cell Plating • 1. Seed 12.500 cells in 45 ul medium for each cell line. Allow cells to settle/attach to plate for 15-20 min at room temperature. • 2. Incubate cells overnight in a 37° C. humidity and CO2 controlled incubator.
Day 2: Compound Plate Preparation and Compound Treatment • 1. For the 10× intermediate dilution plate: add 95 ul serum-free media into a standard profile greiner 384 well polypropylene plate. • 2. Use biomek Fx protocol for intermediate compound dilution in media and addition to cells: “SLS Intermed Dil Add 5 ul to Cells Jul. […] The method then transfers 5 ul from the intermediate dilution plate to the appropriate cell plate. • 3. Incubate the treated cells at 37 degrees for 24 hours in a 5% CO2 humidified incubator.
Block the MSD assay plate with 50 ul 3% Blocker A/1×MSD Wash Buffer 1-2 hr at room temp. […] Blocking buffer A contains 1×MSD wash buffer. 20 mL 1× Tris Wash buffer and 600 mg Blocker A.
Aspirate Media and Lyse the Cells • 1. Lyse the cells in 50 μl lysis buffer. Lyse at room temperature for 10-20 minutes on plate shaker. • 2. While cells are lysing, wash blocked plates 1×MSD wash buffer. • 3. Transfer 42 ul lysates (21+21 μL) to a blocked MSD pPRAS40 assay plate. • 4. Seal MSD plates and incubate at 4° C. with shaking overnight.
Day 4: MSD Assay/Detection • 8. Make a solution of 1% Blocker A in 1×MSD wash buffer. (20 mL 1× Tris Wash buffer and 200 mg Blocker A (1% w/v). This solution can be stored at 4° C. for up to one month. • 9. Wash the MSD plates with 1×MSD wash buffer. • 10. Add 10 μl of the diluted SULFO-TAG detection antibody to the plates. Incubate for 1 hr with shaking at room temp.
Wash the plates 4× with 1×MSD wash buffer. • 12. Add 35 μl 1× Read buffer with reverse pipetting to avoid bubbles. • 13. Read the plate immediately on the MSD SECTOR instrument.

[9] = system: CD69 expression in CD19+ CD27− B cells; assay: B-cell a-IgM CD69 expression, human whole blood assay (Example 906); assay type: cell-based; conditions: human whole-blood IC50 multiplied by measured human fu, read-out: B-cell a-IgM CD69 expression IC50, plasma-protein-binding corrected
Procedure: The expression of CD69 in B-cells resultant from a-IgM treatment is believed to be driven by signaling through PI3Kδ (delta).
Human whole blood was dispensed into 96-deep well plates at 100 μl per well. Compounds were diluted in DMSO to generate the desired stock concentrations and then further diluted in PBS to the desired working concentration and added in a volume of 5.5 μL per well. Samples were then incubated for 1 hour at 37° C. under 5% CO2 before the addition of 5 μg (10 μl per well) of Goat anti IgM F(ab′)2 (Southern Biotech, AL), and incubated for 18 hours at 37° C. under 5% CO2. All treatments were tested in duplicate.
In addition, human whole blood from each donor was stained with isotype-matched fluorescent control antibodies. After the addition of the appropriate antibody cocktail the whole blood samples were stained for 30 minutes in the dark and then lysed using BD Pharm Lysis (BD Bioscience, NJ). The resulting samples were then washed with FACS Buffer (Phosphate Buffered Saline (Ca:Mg++ free), 1 mM EDTA, 25 mM HEPES pH 7.0, 1% Fetal Bovine Serum (Heat-Inactivated) and fixed in FACS Buffer supplemented with 0.1% Formaldehyde (Polysciences Inc, PA) and 0.1% Pluronic F-68 (Sigma, MO). Data were acquired using a BD LSR-II (BD Biosciences) with BD FACSDiva software.
Cells were assessed by flow cytometry for levels of CD19, CD27 and CD69 using BD FACSDiva Software and the CD69 MFI-Mean of the CD19^+ CD27^− lymphocyte population was determined.

Sequence of PI3Kγ (P48736 whole entry): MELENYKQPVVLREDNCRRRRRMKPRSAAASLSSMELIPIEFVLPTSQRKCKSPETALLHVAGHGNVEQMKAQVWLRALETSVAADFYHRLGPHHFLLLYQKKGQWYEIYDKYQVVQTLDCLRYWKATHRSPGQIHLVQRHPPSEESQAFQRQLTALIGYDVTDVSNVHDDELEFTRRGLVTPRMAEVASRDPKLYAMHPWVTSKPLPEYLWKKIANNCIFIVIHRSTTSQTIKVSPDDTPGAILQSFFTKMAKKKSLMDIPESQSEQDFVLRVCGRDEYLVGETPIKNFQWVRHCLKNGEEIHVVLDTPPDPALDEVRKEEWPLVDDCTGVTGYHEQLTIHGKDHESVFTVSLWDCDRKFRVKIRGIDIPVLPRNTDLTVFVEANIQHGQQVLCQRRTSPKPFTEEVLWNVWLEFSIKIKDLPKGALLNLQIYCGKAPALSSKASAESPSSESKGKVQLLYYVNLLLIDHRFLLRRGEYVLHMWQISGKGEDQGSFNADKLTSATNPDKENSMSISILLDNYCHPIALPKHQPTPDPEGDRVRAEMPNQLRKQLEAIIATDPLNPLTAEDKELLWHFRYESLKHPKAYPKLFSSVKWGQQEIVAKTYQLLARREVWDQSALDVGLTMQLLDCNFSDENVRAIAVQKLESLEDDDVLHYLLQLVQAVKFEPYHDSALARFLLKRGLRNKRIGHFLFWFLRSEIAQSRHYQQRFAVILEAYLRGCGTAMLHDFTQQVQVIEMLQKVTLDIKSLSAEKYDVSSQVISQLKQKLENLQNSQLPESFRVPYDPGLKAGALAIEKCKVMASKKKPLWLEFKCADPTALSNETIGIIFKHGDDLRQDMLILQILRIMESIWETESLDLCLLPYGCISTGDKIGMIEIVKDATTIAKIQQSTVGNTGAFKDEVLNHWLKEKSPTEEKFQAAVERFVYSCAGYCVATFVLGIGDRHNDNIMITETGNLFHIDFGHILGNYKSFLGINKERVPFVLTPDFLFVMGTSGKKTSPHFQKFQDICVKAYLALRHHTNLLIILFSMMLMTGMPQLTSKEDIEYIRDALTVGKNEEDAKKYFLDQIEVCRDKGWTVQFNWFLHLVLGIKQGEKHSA
Sequence of PI3Kβ (P42338 whole entry): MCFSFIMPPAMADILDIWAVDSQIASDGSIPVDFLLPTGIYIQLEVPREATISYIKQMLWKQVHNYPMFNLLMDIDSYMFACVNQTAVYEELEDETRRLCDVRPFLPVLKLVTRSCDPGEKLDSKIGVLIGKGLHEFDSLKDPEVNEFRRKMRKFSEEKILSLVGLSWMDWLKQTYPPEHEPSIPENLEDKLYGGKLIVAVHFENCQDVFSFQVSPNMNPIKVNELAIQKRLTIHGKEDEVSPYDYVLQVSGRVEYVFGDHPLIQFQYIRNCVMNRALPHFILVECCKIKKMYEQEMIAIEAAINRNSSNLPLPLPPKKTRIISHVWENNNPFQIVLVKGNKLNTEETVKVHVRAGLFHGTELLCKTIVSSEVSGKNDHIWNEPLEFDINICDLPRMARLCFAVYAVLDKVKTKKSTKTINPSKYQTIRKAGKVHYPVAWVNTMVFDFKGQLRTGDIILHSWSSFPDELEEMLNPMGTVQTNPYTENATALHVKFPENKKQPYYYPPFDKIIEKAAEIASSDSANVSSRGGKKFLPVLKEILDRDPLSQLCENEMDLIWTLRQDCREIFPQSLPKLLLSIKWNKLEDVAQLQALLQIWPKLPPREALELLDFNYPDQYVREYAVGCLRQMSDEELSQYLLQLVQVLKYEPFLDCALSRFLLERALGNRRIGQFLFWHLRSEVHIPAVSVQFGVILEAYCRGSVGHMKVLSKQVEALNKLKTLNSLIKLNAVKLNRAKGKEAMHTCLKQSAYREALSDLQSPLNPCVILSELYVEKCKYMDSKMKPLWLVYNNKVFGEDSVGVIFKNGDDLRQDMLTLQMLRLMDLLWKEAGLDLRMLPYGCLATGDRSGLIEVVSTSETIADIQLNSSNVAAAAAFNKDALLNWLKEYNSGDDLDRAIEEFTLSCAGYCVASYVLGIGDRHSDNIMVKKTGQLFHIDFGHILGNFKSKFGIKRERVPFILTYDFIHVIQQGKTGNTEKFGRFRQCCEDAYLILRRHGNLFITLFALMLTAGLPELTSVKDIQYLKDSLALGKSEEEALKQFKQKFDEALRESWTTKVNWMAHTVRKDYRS
Sequence of PI3Kβ (P27986 whole entry partner): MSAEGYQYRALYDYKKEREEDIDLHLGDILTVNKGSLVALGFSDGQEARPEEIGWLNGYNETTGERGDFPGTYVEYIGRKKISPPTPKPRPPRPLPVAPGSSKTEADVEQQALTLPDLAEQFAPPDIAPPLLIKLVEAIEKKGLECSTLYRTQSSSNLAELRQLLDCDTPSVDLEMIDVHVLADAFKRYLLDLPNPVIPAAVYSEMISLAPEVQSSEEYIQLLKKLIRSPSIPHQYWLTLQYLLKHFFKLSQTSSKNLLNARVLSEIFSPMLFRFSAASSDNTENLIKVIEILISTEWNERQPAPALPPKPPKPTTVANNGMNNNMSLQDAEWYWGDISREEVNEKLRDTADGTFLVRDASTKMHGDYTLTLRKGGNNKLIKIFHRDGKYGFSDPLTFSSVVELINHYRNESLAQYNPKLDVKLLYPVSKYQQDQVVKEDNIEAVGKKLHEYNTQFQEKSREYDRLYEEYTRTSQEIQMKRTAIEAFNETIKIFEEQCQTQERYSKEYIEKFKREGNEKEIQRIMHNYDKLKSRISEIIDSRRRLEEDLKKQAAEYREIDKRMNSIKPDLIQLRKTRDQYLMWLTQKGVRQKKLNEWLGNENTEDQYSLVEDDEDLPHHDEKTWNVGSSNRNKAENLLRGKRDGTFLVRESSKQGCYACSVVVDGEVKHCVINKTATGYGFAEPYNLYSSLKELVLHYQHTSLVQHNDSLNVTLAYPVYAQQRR
Sequence of PI3Kδ (O00329 whole entry): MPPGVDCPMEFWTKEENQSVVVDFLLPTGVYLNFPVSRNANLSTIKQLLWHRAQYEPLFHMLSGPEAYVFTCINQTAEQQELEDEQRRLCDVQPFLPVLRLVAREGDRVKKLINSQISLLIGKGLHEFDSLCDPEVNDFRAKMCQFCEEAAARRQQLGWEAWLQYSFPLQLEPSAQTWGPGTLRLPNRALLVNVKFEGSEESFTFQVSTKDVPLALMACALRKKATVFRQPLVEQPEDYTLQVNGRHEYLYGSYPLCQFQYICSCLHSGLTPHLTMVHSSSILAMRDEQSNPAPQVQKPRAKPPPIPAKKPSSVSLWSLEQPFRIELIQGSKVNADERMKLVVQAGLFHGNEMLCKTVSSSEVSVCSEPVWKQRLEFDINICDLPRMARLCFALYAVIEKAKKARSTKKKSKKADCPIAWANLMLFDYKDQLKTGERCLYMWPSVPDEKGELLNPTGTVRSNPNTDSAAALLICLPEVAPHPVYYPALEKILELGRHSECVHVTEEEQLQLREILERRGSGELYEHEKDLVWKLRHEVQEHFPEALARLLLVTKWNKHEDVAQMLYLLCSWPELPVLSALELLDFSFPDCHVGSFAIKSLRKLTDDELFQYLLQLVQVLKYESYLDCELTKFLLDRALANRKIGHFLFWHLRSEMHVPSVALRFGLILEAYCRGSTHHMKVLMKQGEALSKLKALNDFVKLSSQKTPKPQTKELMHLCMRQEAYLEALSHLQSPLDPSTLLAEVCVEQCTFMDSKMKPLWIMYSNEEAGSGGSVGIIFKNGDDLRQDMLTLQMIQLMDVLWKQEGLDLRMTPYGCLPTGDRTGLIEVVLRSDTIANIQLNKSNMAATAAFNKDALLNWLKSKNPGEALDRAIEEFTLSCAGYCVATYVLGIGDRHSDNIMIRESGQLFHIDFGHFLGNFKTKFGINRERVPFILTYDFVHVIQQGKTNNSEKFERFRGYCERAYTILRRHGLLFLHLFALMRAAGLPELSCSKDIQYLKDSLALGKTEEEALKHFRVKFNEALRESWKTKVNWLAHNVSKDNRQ
Sequence of PI3Kδ (P27986 whole entry partner): as the sequence (P27986 whole entry partner) above
Sequence of PI3Kα (P42336 whole entry, canonical isoform): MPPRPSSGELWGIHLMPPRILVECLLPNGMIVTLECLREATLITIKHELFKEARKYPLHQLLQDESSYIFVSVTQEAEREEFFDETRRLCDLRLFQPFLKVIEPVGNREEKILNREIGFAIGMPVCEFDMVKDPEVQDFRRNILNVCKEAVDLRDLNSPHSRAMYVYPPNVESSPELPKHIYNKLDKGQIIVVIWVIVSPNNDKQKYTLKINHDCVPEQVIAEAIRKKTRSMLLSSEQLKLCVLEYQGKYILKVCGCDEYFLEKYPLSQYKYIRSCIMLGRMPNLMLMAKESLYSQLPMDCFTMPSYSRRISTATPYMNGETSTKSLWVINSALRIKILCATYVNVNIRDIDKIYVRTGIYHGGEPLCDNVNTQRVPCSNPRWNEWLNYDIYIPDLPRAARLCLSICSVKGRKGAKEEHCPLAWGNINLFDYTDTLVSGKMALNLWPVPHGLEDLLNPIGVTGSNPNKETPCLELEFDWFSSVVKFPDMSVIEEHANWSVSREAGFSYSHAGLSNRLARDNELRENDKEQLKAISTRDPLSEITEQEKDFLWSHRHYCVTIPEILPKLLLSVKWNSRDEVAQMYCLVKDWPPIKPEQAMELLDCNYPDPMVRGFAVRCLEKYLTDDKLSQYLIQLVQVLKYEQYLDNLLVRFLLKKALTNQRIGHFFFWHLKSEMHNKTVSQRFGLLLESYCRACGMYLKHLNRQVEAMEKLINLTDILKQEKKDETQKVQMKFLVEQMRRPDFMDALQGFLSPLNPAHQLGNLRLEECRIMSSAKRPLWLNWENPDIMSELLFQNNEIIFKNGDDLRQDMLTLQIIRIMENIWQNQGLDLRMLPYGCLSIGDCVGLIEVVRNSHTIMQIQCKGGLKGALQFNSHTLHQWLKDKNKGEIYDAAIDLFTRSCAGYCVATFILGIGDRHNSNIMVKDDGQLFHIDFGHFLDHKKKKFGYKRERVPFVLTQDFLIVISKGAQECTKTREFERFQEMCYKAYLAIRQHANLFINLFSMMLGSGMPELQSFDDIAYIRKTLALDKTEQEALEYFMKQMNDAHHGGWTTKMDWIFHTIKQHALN
Sequence of PI3Kα (P27986 whole entry partner, canonical isoform): as the sequence (P27986 whole entry partner) above

Compound	pKi [1]	pEC50 [2]	pEC50 [3]	pEC50 [4]	Selectivity for PI3Kα vs. PI3Kδ ([1]; Ki ratio delta/alpha, fold)	Selectivity for PI3Kα vs. PI3K-β ([1]; fold)	Selectivity for PI3Kα vs. PI3Kγ ([1]; fold)	pKi [5]	pKi [6]	pKi [7]	Fold Selectivity for SW48 (E545K) vs. SW48 (parental) [3]	Fold Selectivity for SW48 (H1047R) vs. SW48 (parental) [4]	pEC50 [8]	Selectivity for PI3Kα vs. PI3Kδ [1]	pIC50 [9]
CC(C)n1ncnc1-c1cn2c(n1)-c1ccc(OC(C(N)=O)C3CC3)cc1OCC2 (single isomer, unassigned) [549 (separated stereoisomer 1), reference compound]	9.25	7.92	7.98	7.83	–	–	–	–	–	–	–	–	–	–	–
CC(C)n1ncnc1-c1cn2c(n1)-c1ccc(OC(C(N)=O)C3CC3)cc1OCC2 (single isomer, unassigned) [549 (separated stereoisomer 2), reference compound]	8.25	–	–	–	–	–	–	–	–	–	–	–	–	–	–
CC(C)(O)Cn1cc(-c2ccc3c(c2)OCCc2sc(N4C(=O)OCC4(C)C)nc2-3)cn1 [356 (U.S. Pat. No. 8,263,633), reference compound]	–	–	–	–	0.95	–	–	–	–	–	–	–	–	–	–
C[C@@H]1COC(=O)N1c1cn2c(n1)-c1ccc(N[C@H](C(N)=O)C3CCC3)cc1OCC2 [Compound 102, (S)-2-cyclobutyl-2-((2-((R)-4-methyl-2-oxooxazolidin-3-yl)-5,6-dihydrobenzo[f]imidazo[1,2-d][1,4]oxazepin-9-yl)amino)acetamide]	9.02	7.07	7.47	7.45	301	>1054	746	< 6.00	6.54	6.15	2.5 (p = 0.002)	2.4 (p = 0.001)	–	–	–
C[C@@H]1COC(=O)N1c1cn2c(n1)-c1ccc(N[C@H](C(N)=O)C3CC3)cc1OCC2 [Compound 104, (S)-2-Cyclopropyl-2-((2-((R)-4-methyl-2-oxooxazolidin-3-yl)-5,6-dihydrobenzo[f]imidazo[1,2-d][1,4]oxazepin-9-yl)amino)acetamide]	9.33	7.21	7.70	7.64	425	1750	622	6.09	6.71	6.54	3.1 (p = 0.007)	2.7 (p = 0.009)	–	–	–
NC(=O)[C@@H](Nc1ccc2c(c1)OCCn1cc(N3C(=O)OC[C@H]3CF)nc1-2)C1CC1 [Compound 105, (S)-2-Cyclopropyl-2-((2-((S)-4-(fluoromethyl)-2-oxooxazolidin-3-yl)-5,6-dihydrobenzo[f]imidazo[1,2-d][1,4]oxazepin-9-yl)amino)acetamide]	–	7.90	8.38	8.32	–	–	–	6.47	7.52	7.44	–	–	6.75	–	–
C[C@H](Nc1ccc2c(c1)OCCn1cc(N3C(=O)OC[C@H]3CF)nc1-2)C(N)=O [Compound 106, (S)-2-((2-((S)-4-(Fluoromethyl)-2-oxooxazolidin-3-yl)-5,6-dihydrobenzo[f]imidazo[1,2-d][1,4]oxazepin-9-yl)amino)propanamide]	10.40	7.94	8.35	8.36	416	3050	444	6.91	7.78	7.75	2.5 (p = 0.003)	2.6 (p = 0.001)	–	–	–
CC[C@H](Nc1ccc2c(c1)OCCn1cc(N3C(=O)OC[C@H]3C(F)F)nc1-2)C(N)=O [Compound 107, (S)-2-((2-((S)-4-(Difluoromethyl)-2-oxooxazolidin-3-yl)-5,6-dihydrobenzo[f]imidazo[1,2-d][1,4]oxazepin-9-yl)amino)butanamide]	10.32	7.97	8.28	8.28	368	2782	499	6.88	7.76	7.63	2.0 (p = 0.003)	2.1 (p = 0.003)	–	–	–
CC(C)n1ncnc1-c1cn2c(n1)-c1ccc(N3CCC[C@H]3C(N)=O)cc1OCC2 [Compound 375, reference compound]	–	–	–	–	–	–	–	–	9.38	–	–	–	–	21.7	–
NC(=O)[C@@H]1CCCN1c1ccc2c(c1)OCCn1cc(-c3ncnn3CC(F)(F)F)nc1-2 [Compound 469, reference compound]	> 10.70	–	–	–	19.3	–	–	–	9.41	–	–	–	–	–	–
C[C@H](Oc1ccc2c(c1)OCCn1cc(-c3ncnn3CC(F)(F)F)nc1-2)C(N)=O [Compound 486, reference compound]	–	–	–	–	13.4	–	–	–	–	–	–	–	–	–	–
CC(C)C(Oc1ccc2c(c1)OCCn1cc(-c3ncnn3CC(F)(F)F)nc1-2)C(N)=O (stereo not shown) [Compound 501, reference compound]	8.45	–	–	–	6.1	–	–	–	7.66	–	–	–	–	–	–
C[C@H](Nc1ccc2c(c1)OCCn1cc(-c3ncnn3CC(F)(F)F)nc1-2)C(N)=O [Compound 529, reference compound]	10.64	8.80	9.10	9.05	46.9	–	–	–	8.98	–	2.2	2.0	–	–	–
CC(C)n1ncnc1-c1cn2c(n1)-c1ccc(N(C)[C@@H](C)C(N)=O)cc1OCC2 [Compound 550, reference compound]	9.97	–	–	–	19.4	–	–	–	8.71	–	–	–	–	–	–
CC[C@H](Nc1ncnc2nc[nH]c12)c1nc2cccc(F)c2c(=O)n1-c1ccccc1 [idelalisib, 5-fluoro-3-phenyl-2-[(1S)-1-(7H-purin-6-ylamino)propyl]-4(3H)-quinazolinone]	–	–	–	–	–	–	–	–	–	–	–	–	–	–	7.32
